The assay deals with Transient receptor potential cation channel subfamily M member 7 (Mus musculus) (UniProt Q923J1). The assay is described as follows: Inhibition of Tet-induced Flag-tagged mouse TRPM7 expressed in HEK293 cells assessed as inhibition of channel-mediated cell death in presence of Mg2+ incubated for 24 to 48 hrs by propidium iodide uptake assay. The format is cell-based. Details: concentration or dose not given beside the values.

For orientation: inhibition means how much of the control response was suppressed.

Calls of active or inactive are those of the source. The calls are words filed in the database; no cut-off is given here.

Chain of Transient receptor potential cation channel subfamily M member 7 (Mus musculus) (Q923J1 whole entry): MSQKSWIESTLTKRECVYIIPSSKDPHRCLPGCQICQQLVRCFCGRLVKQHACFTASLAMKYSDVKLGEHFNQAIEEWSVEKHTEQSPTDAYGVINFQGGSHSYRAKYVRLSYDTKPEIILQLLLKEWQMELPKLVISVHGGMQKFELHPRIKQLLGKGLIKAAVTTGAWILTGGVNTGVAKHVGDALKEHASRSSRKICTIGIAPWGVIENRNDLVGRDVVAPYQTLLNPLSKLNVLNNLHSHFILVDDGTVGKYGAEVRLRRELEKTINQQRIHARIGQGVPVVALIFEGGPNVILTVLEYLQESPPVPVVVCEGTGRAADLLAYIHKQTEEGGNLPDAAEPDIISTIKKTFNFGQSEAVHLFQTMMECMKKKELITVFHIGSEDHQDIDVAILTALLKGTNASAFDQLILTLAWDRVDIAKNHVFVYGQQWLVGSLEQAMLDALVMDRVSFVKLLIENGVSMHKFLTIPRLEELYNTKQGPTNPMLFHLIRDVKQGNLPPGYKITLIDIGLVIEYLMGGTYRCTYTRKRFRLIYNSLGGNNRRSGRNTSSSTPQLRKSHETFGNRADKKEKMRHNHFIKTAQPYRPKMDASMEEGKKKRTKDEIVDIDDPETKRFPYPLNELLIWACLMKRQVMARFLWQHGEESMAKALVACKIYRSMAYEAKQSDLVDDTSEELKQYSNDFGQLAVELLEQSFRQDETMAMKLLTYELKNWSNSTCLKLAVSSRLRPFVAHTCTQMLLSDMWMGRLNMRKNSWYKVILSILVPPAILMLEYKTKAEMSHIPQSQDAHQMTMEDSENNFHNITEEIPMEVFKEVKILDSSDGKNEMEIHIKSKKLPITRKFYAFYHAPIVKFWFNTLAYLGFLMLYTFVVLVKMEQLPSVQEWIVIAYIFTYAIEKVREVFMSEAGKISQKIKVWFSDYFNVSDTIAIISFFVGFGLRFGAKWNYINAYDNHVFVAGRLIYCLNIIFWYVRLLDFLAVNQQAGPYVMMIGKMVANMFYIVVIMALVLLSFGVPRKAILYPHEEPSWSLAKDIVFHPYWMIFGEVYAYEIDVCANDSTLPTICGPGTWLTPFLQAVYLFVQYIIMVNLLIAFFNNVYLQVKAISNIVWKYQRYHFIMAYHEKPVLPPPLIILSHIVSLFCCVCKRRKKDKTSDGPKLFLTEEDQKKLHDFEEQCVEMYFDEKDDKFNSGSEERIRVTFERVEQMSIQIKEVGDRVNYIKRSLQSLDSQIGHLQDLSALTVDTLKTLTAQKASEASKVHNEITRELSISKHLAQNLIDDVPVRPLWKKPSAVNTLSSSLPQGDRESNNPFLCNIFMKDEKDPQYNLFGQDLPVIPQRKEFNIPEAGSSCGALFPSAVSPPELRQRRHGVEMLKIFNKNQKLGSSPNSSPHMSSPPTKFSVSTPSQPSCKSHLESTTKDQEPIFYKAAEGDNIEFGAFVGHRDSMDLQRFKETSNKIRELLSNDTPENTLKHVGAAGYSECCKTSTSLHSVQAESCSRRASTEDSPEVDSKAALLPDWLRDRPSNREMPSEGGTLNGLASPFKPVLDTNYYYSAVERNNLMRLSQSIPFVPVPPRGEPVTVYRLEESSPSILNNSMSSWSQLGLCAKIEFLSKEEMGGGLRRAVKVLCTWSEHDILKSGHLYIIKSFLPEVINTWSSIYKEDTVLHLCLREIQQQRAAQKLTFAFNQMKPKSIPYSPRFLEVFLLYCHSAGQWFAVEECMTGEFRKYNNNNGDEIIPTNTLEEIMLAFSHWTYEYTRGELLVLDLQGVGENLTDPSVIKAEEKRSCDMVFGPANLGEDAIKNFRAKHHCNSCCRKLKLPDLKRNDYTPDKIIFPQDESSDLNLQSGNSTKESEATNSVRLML

Turning to `CCCCCCCSc1nnc[nH]1`, where the note is “concentration not given here”, the inhibition amounted to 70%.

Turning to `CC(=O)OC[C@H]1OC(OC(C)(C)C)[C@H](OC(C)=O)[C@@H](OC(C)=O)[C@@H]1OC(C)=O` (some centres not stated), the inhibition (concentration not given here) stood at 40%.

Turning to `Cc1cc(C2CCCCC2)n(O)c(=O)c1`, the inhibition result was “Active”.

With `O=C(Sc1ccc(C(F)(F)F)cn1)c1ccc(Cl)cc1`, the inhibition (concentration not given here) was less than 30%.

As for `CCc1c(O)c2ccccc2n(C)c1=O`, under “concentration not given here”, the inhibition was determined as 50%.

On to `CCOC(=O)C(C#N)Cc1c(C)c(C)c(C)c(C)c1C` (configuration not stated), for which the inhibition (concentration not given here) is less than 30%.

`C=CC/N=C1/NC(=O)C(CC(=O)Nc2ccc(Cl)cc2)S1` (configuration not stated): where the note is “concentration not given here”, the inhibition was 50%.

For `Cc1cc(C)c(-n2nnnc2SCC(=O)Nc2ccccc2Cl)c(C)c1`, for the setting “concentration not given here”, the inhibition is less than 30%.

As to `C/C=N/N(c1ccccc1)c1cc(-c2ccc(OC)cc2)c(C#N)c(=O)[nH]1`, the inhibition (concentration not given here) stood at 60%.

`CSc1ncc2c(n1)CC(C)(C)C/C2=N/OC(=O)c1ccc(Cl)cc1`: the inhibition (concentration not given here) was less than 30%.

Consider `CC(c1ccco1)N(C(=O)c1sc2ccccc2c1Cl)c1ccccn1` (configuration not stated), for which the inhibition (concentration not given here) is less than 30%.

For the molecule `Cc1c(-c2nc(-c3ccc(C(C)(C)C)cc3)no2)n(C)oc1=O`, the inhibition (concentration not given here) is less than 30%.

For `O=C(Nc1ccc(Cl)cc1)Nc1ccccc1Oc1ccccc1`, where the note is “concentration not given here”, the inhibition was determined as 50%.

For the molecule `CN(C)C=O.O=C(Nc1nnc(Sc2ccnc3cc(Cl)ccc23)s1)c1sc2ccccc2c1Cl`, the inhibition (concentration not given here) is 80%.

For `c1ccc(CSc2nccc(-c3ccc4c(c3)CCO4)n2)cc1`, under “concentration not given here”, the inhibition was 70%.

For `CCCCCCCC(=O)NC1=NC2c3ccc(OC)cc3CCC2S1` (configuration not stated), the inhibition (concentration not given here) was 70%.

Consider `O=C(NNC(=S)Nc1cc(Cl)ccc1Cl)C(O)(c1ccccc1)c1ccccc1`, for which the inhibition (concentration not given here) turned out to be 50%.

For `Cn1c(CN2C(=O)CSc3ccc(C(F)(F)F)cc32)nnc1SCC(=O)c1ccccc1`, the inhibition (concentration not given here) was less than 30%.

As to `CN(C)c1cccc(N(C)C)c1CNC(=O)c1ccc(Cl)cc1`, the inhibition (concentration not given here) stood at 80%.

Take `CCCCCc1c(COC)c2ccc(O)cc2oc1=O`: the inhibition (concentration not given here) is 50%.

Consider `CC(C)(C)S(=O)(=O)/C(C#N)=C/N/N=C/c1ccccc1Cl`, for which the inhibition (concentration not given here) is less than 30%.

For the molecule `COc1c(C(C)(C)C)cc(/N=C/c2ccccc2O)c(C)c1/N=C/c1ccccc1O`, for the setting “concentration not given here”, the inhibition was found to be 60%.

With `CC(C)c1ccc(NC(=O)c2c(-c3ccccc3)nnc3ccccc23)cc1`, the inhibition (concentration not given here) was less than 30%.

Consider `Cc1cc(C)cc(N/C=C(\C#N)S(=O)(=O)c2ccc(Cl)cc2)c1`, for which the inhibition (concentration not given here) is less than 30%.

For `CN1c2ccsc2C(O)=C(C(=O)Nc2cccc(Cl)c2)S1(=O)=O`, the inhibition (concentration not given here) was less than 30%.

Take `Cc1cccn2cc(-c3ccccc3Cl)nc12`: the inhibition (concentration not given here) turned out to be 30%.

As for `CCn1cnc2c(Nc3cccc(Cl)c3)nc(N[C@@H]3CCCC[C@@H]3N)nc21` (relative stereo), the inhibition entry was “Dose-dependent effect”.

Take `O=c1oc2cc(O)ccc2c(O)c1Cc1ccc(Cl)c(Cl)c1`: the inhibition (concentration not given here) came out at 80%.

As to `O=S(=O)(c1cc(Cl)sc1Cl)N1CCN(CCc2ccccc2)CC1`, for the setting “concentration not given here”, the inhibition was less than 30%.

Turning to `Cc1onc(-c2ccccc2Cl)c1C(=O)NNc1cccc(C(F)(F)F)n1`, where the note is “concentration not given here”, the inhibition is less than 30%.

With `CC(=O)CSc1nnc(CN2C(=O)CSc3ccc(C(F)(F)F)cc32)n1C`, under “concentration not given here”, the inhibition was less than 30%.

For the molecule `CC(C)(C)c1cc(C(=O)/C(C#N)=N/Nc2cccc(Cl)c2)no1`, the inhibition (concentration not given here) was found to be 70%.

As to `O=[N+]([O-])c1ccc(-n2ncc(-c3nc(-c4ccc(Cl)cc4)no3)c2C(F)(F)F)cc1`, for the setting “concentration not given here”, the inhibition was less than 30%.

For the molecule `Cc1[nH]c2ccccc2c1CN1CCN(c2ccc(F)cc2)CC1`, the inhibition (concentration not given here) was less than 30%.

On to `O=C(/C=C/c1ccc(OC(F)(F)F)cc1)NCc1ccco1`, for which, where the note is “concentration not given here”, the inhibition was found to be 60%.

For the molecule `O=C1NC(=S)S/C1=C\c1cccc([N+](=O)[O-])c1`, for the setting “concentration not given here”, the inhibition is less than 30%.

Consider `C=C(C)[C@@H]1CC[C@]2(C(=O)O)CC[C@]3(C)[C@H](CC[C@@H]4[C@@]5(C)CC[C@H](O)C(C)(C)[C@@H]5CC[C@]43C)[C@@H]12`, for which the inhibition entry is “Dose-dependent effect”.

Take `CC(C)(C)c1ccc(-c2nc(CSc3ccc(Cl)cc3)no2)s1`: the inhibition (concentration not given here) is 60%.

Turning to `O=S(=O)(c1cccc(Cl)c1)N1CCC(O)(c2ccc(Cl)cc2)CC1`, under “concentration not given here”, the inhibition stood at 70%.

In the case of `CC(C)NC(=O)c1cc(-c2cccs2)on1`, the inhibition (concentration not given here) came out at 30%.

With `Cc1cc(C(=O)NNC(=O)Nc2ccc(Cl)cc2)no1`, for the setting “concentration not given here”, the inhibition was 30%.

Take `FC(F)(F)c1ccc(C2c3ccsc3CCN2C(=S)Nc2ccc(Cl)cc2Cl)cc1` (configuration not stated): the inhibition (concentration not given here) was 70%.

On to `C#Cc1cccc(NC(=O)c2c(-c3c(Cl)cccc3Cl)noc2C)c1`, for which the inhibition (concentration not given here) was less than 30%.

As to `COC(=O)C(O)(c1ccc(NC(=O)Nc2ccc(Cl)cc2)cc1)C(F)(F)F` (configuration not stated), where the note is “concentration not given here”, the inhibition is 50%.

`O=C(Nc1ccc(Oc2ccccc2)cc1)Nc1cccs1`: the inhibition (concentration not given here) amounted to 70%.

On to `OC(CN1CCN(Cc2c(F)cccc2Cl)CC1)Cn1ccc2ccccc21` (configuration not stated), for which the inhibition (concentration not given here) worked out at 50%.

On to `COc1ccc(/C=N/NS(=O)(=O)c2ccc(Cl)cc2)cc1OC`, for which, for the setting “concentration not given here”, the inhibition worked out at 80%.

Consider `COC(=O)C1=CNC(CC(CC=O)c2ccc(F)cc2)=CC1c1ccc(N(C)C)cc1Cl` (configuration not stated), for which, under “concentration not given here”, the inhibition is less than 30%.

As to `O=C(O/N=C(\Cn1nnc(N2CCCCC2)n1)c1ccc(Cl)cc1)c1ccccc1Cl`, for the setting “concentration not given here”, the inhibition was less than 30%.

As to `O/N=C/c1ccc2c(c1)CCO2`, where the note is “concentration not given here”, the inhibition was less than 30%.

As for `COc1ccccc1N1CCN(Cc2c[nH]nc2-c2ccccc2)CC1`, the inhibition (concentration not given here) is 80%.

On to `Cc1ccc(C(=O)/C=C/C(=O)O)c(C)c1F`, for which, for the setting “concentration not given here”, the inhibition was 60%.

On to `CCOC(=O)C(=CNNC(=O)c1cccs1)C(=O)OCC`, for which the inhibition (concentration not given here) came out at 60%.

As to `N#Cc1cc(CCCCc2cc(C#N)c3ccccc3c2)cc2ccccc12`, the inhibition (concentration not given here) is less than 30%.

Turning to `O=C(Oc1ccc(Oc2ccccc2)cc1)N1CCC(OC(=O)n2ccnc2)CC1`, the inhibition (concentration not given here) is less than 30%.

Take `COc1cccc(/C=C2/C=C(C3CCCS3)OC2=O)c1OC` (configuration not stated): the inhibition (concentration not given here) was less than 30%.

Take `Cc1nc(-c2ccc(S(=O)(=O)Nc3cccc(S(N)(=O)=O)c3)s2)cs1`: the inhibition (concentration not given here) is less than 30%.

For `N#Cc1ccc2[nH]cc(CCN(Cc3ccccc3)Cc3ccccc3)c2c1`, the inhibition (concentration not given here) is less than 30%.

For the molecule `Cc1onc(-c2c(Cl)cccc2Cl)c1C(=O)Nc1cccc2nsnc12`, the inhibition (concentration not given here) is 30%.

Regarding `Cc1csc(-c2nc(-c3ccc(Cl)cc3)no2)c1Cl`, the inhibition (concentration not given here) was less than 30%.

For `CCCCCCCCOc1ccc(S)nn1`, the inhibition (concentration not given here) was less than 30%.

With `Cc1onc(-c2ccccc2Cl)c1C(=O)Nc1cccc2cccnc12`, under “concentration not given here”, the inhibition was 60%.

As to `COC(=O)c1cc(C)nc(Sc2ccccc2NC(=O)c2ccccc2)n1`, for the setting “concentration not given here”, the inhibition is less than 30%.

In the case of `CSc1nccc(-c2ccc(S(=O)(=O)n3nc(C)c(Br)c3C)s2)n1`, the inhibition (concentration not given here) was less than 30%.

As for `COc1ccccc1C1CCN(S(=O)(=O)c2ccc(C(C)C)cc2)CC1`, the inhibition (concentration not given here) was 80%.

`COc1ccccc1N1CCN(Cc2c[nH]c3ccccc23)CC1`: for the setting “concentration not given here”, the inhibition stood at 70%.

Take `CCOC(C)CNC(=S)N/N=C/c1cccnc1` (configuration not stated): the inhibition (concentration not given here) is less than 30%.

Turning to `Cc1cc(-c2nnc(C(F)(F)F)o2)ccc1NC(=S)Nc1ccc(Cl)cc1Cl`, for the setting “concentration not given here”, the inhibition amounted to 70%.

For `Cc1cc(NS(=O)(=O)c2cccs2)[nH]n1`, the inhibition (concentration not given here) was less than 30%.

With `CC(C)NC(=O)n1ccc(-c2nn(-c3ccc(F)cc3)ccc2=O)n1`, for the setting “concentration not given here”, the inhibition was less than 30%.

For `O=C(Nc1ccc(Cl)cc1)OCc1noc(-c2cccs2)n1`, where the note is “concentration not given here”, the inhibition is 70%.

For `CN1CCN(NC(NC(=O)c2cccnc2)(C(F)(F)F)C(F)(F)F)CC1`, for the setting “concentration not given here”, the inhibition is less than 30%.

Turning to `CCOC(=O)C(=CNNS(=O)(=O)c1cc(C(F)(F)F)cc(C(F)(F)F)c1)C(=O)OCC`, the inhibition (concentration not given here) came out at 40%.

For `CC1CCN(CC(=O)Nc2ccc(Cl)cc2C(=O)c2ccccc2Cl)CC1`, where the note is “concentration not given here”, the inhibition stood at 70%.

As to `COc1ccc2c(c1)CCC1SC(NC(=O)c3ccco3)=NC21` (configuration not stated), the inhibition (concentration not given here) is less than 30%.

Consider `Cc1nc(N/C=N/O)c(Br)cc1Br`, for which, for the setting “concentration not given here”, the inhibition was determined as 30%.

Regarding `COc1ccc(C2C3CCc4ccccc4C3=NN2CCOC(=O)Nc2ccc(Cl)cc2)cc1` (configuration not stated), where the note is “concentration not given here”, the inhibition was determined as 60%.

Turning to `OC(CN1CCN(C(c2ccccc2)c2ccccc2)CC1)c1ccccc1` (configuration not stated), under “concentration not given here”, the inhibition turned out to be 60%.

With `C/C(=N\Nc1c(C)cccc1Cl)c1ccc(Oc2ncc([N+](=O)[O-])s2)cc1`, the inhibition (concentration not given here) was less than 30%.

Consider `CC(=O)Nc1ccc(S(=O)(=O)Nc2ccccc2C#N)cc1`, for which the inhibition (concentration not given here) was less than 30%.

For the molecule `NC(=O)c1sc(-c2ccc(Cl)cc2)cc1NS(=O)(=O)c1ccc(Cl)cc1`, where the note is “concentration not given here”, the inhibition came out at 50%.

As to `COc1ccc(NC(=O)CSc2nnc(C)n2-c2ccc(OCc3ccccc3)cc2)cc1`, the inhibition (concentration not given here) is 50%.

As to `O=C(c1cc(Br)cc2c1OCC2)N1CCOCC1`, the inhibition (concentration not given here) was less than 30%.

Consider `Cc1nnsc1C(=O)NCc1csc2ccc(Cl)cc12`, for which the inhibition (concentration not given here) was less than 30%.

For `Cn1nc(-c2ccc(Cl)cc2)cc1NS(=O)(=O)c1cccc2nonc12`, for the setting “concentration not given here”, the inhibition is less than 30%.

Turning to `Cc1cc(Sc2ncnc3cc(-c4ccc(F)cc4)sc23)c(C)cc1Cl`, the inhibition (concentration not given here) was less than 30%.

On to `N/C(=N\OC(=O)c1ccc(OCC(F)(F)F)nc1)c1ccc(OC(F)(F)F)cc1`, for which the inhibition (concentration not given here) was less than 30%.

`N#Cc1ccc(NS(=O)(=O)c2ccc3ccccc3c2)cc1`: the inhibition (concentration not given here) is 40%.

`OC(COc1ccc(F)cc1)CN1CCN(Cc2c(F)cccc2Cl)CC1` (configuration not stated): the inhibition (concentration not given here) was 30%.

With `COc1cc2c(cc1OCC(=O)Nc1ccc(C)cc1)C=CC(C)(C)O2`, the inhibition (concentration not given here) was found to be 30%.

Turning to `CCCCCNC(=S)NNC(=O)OCC`, the inhibition (concentration not given here) turned out to be 60%.

In the case of `Cc1ccc2c(c1)CCCN2C(=S)Nc1cccc(Cl)c1`, the inhibition (concentration not given here) was less than 30%.

As for `CC12CCC(C(=O)N3CCSCC3)(OC1=O)C2(C)C` (configuration not stated), where the note is “concentration not given here”, the inhibition was less than 30%.

As for `CCOC(=O)C(=CNc1cc(OC)cc(C(F)(F)F)c1)C(=O)OCC`, under “concentration not given here”, the inhibition stood at 70%.

As to `O=C(/C(=N/Nc1ccc([N+](=O)[O-])cc1)C(=O)C(F)(F)F)c1cccs1`, for the setting “concentration not given here”, the inhibition amounted to 40%.

Turning to `O=[N+]([O-])c1ccc(Nc2cccc(F)c2)c2nonc12`, the inhibition (concentration not given here) was 40%.

`N#Cc1ccc(NC(=O)Nc2ccc(OCc3ccccc3)cc2)cc1`: the inhibition (concentration not given here) came out at 80%.
